The target in one data set is T1, β3-adrenergic receptor (Homo sapiens, UniProt P13945).
T1 construct: Full length β3 AR clones (402 amino acids) containing the last 6 amino acids of hβ3-AR are prepared; expressed in transfected cells; host or cells: CHO (Chinese hamster ovary) cells
The experiment in a line: cAMP accumulation (SPA) in CHO cells transfected with human β3 adrenergic receptor. The data set is classed as cell-based. As to conditions: for EC50: CHO cells expressing human β3-AR, cAMP, 30 min, 37° C., 10^-9 M to 10^-5 M; for IA(β3): maximal response relative to maximal response of isoproterenol at 10^-5 M. How it is done: The ability of compounds of this invention to treat or inhibit disorders related to insulin resistance or hyperglycemia was established with representative compounds of this invention in the following standard pharmacological test procedures, which measured the binding selectivity to the β1, β2, and β3 adrenergic receptors. Binding to the receptors was measured in Chinese Hamster ovary (CHO) cells that were transfected with adrenergic receptors.
Cloning of Human β3-AR Genomic DNA: CDNA was constructed by ligating four polymerase chain reaction (PCR) products using the following primers: an ATG-Narl fragment, sense primer 5′-[…]3′, and anti-sense primer 5′[…]3′; a Narl-Accl fragment, 5′[…]3′ as sense and 5′[…]3′ as anti-sense primer; an Accli-Styl fragment, sense primer 5′[…]3′ and anti-sense primer 5′[…]3′ and a Styl-TAG fragment, with sense primer 5′[…]3′ and anti-sense primer 5′[…]3′. The corresponding primer sequences are described in Mantzoros, C. […] The four fragments are ligated into a pUC 18 plasmid (Gibco-BRL) and sequenced.
Binding Procedure: Clones expressing receptor levels of 70 to 110 fmoles/mg protein were used in the test procedures. CHO cells were grown in 24-well tissue culture plates in Dulbecco's Modified Eagle Media with 10% fetal bovine serum, MEM non-essential amino acids, Penicillin-Streptompycin and Geneticin. On the day of test procedure, growth medium was replaced with preincubation media (Dulbecco's Modified Eagle Media) and incubated for 30 minutes at 37° C. […] Test compounds were tested over a concentration range of 10^−9 M to 10^−5 M for β3 cells and 10^−8 to 10^−4 M for β1 and β2 transfected cells. Isoproterenol (10^−5 M) was used as an internal standard for comparison of activity. Cells were incubated at 37° C. on a rocker for 30 min with the β3 cells and 15 min for β1 and β2 cells. Incubation was stopped with the addition of 0.2N HCl and neutralized with 2.5N NaOH. The plates, containing the cells and neutralized media, were stored at −20 degrees celsius until ready to test for cAMP using the SPA test kit (Amersham).
Data Analysis and Results: Data collected from the SPA test procedure were analyzed as per cent of the maximal isoproterenol response at 10^−5 M. Activity curves were plotted using the SAS statistical and graphics software.
In general terms: Changes in cAMP serve as a functional read-out for many G protein-coupled receptors.

The structures appear in SMILES notation.

What is called EC50 is the concentration giving half of the maximal effect. The term melting point denotes the temperature, or range, at which the solid turns liquid.

T1 sequence (P13945 whole entry): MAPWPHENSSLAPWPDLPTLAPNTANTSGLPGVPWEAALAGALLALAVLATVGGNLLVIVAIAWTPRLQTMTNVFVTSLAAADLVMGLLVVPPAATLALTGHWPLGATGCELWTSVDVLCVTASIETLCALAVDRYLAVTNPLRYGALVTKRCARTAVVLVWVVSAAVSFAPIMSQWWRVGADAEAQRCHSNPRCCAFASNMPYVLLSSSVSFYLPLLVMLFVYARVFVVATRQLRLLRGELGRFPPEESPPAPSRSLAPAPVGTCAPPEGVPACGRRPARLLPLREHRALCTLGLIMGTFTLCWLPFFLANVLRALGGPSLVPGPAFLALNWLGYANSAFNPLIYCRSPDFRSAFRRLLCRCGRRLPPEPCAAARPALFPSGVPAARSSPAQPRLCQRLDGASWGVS

For `O=C1N=C(N2CCOCC2)SC1=Cc1ccc(N2CCC(NC[C@H](O)c3cccc(Cl)c3)CC2)cc1` [Example 25, 5-(4-{4-[(2R)-2-(3-Chloro-phenyl)-2-hydroxy-ethylamino]-piperidin-1-yl}-benzylidene)-2-morpholin-4-yl-thiazol-4-one], the melting point is > 70 °C (dec.). Moreover, on β3-adrenergic receptor, the EC50 was found to be 450 nM and the “IA(β3)” value was found to be 0.51.

On to `Cl.O=C1N=C(N2CCCCC2)SC1=Cc1ccc(OCCNC[C@H](O)COc2ccccc2)cc1` [Example 32, 5-{4-[2-((2S)-2-Hydroxy-3-phenoxy-propylamino)-ethoxy]-benzylidene}-2-piperidin-1-yl-thiazol-4-one hydrochloride salt], for which, on β3-adrenergic receptor, the half-maximal effective concentration (EC50) turned out to be 88 nM and the “IA(β3)” value turned out to be 0.33.

With `Cl.Cl.O=C1N=C(N2CCOCC2)SC1=Cc1ccc(N2CCC(NC[C@H](O)COc3ccccc3)CC2)cc1` [Example 22, 5-{4-[4-((2S)-2-Hydroxy-3-phenoxy-propylamino)-piperidin-1-yl]-benzylidene}-2-morpholin-4-yl-thiazol-4-one dihydrochloride salt], the melting point is > 160 °C (dec.). At β3-adrenergic receptor, the concentration giving a half-maximal response (EC50) was 40 nM and the “IA(β3)” value came out at 0.58.

As to `Cl.O=C1N=C(N2CCCCC2)SC1=Cc1ccc(OCCNC[C@H](O)COc2ccc(O)cc2)cc1` [Example 31, 5-(4-{2-[(2S)-2-Hydroxy-3-(4-hydroxy-phenoxy)-propylamino]-ethoxy}-benzylidene)-2-piperidin-1-yl-thiazol-4-one hydrochloride salt], on β3-adrenergic receptor, the EC50 was determined as 210 nM and the “IA(β3)” value worked out at 0.84.

Turning to `O=C1N=C(NC2CCN(Cc3ccccc3)CC2)SC1=Cc1ccc(N2CCC(NC[C@H](O)COc3cccc4[nH]c(=O)[nH]c34)CC2)cc1` [Example 3, 4-[(2S)-3-(1-{4-[2-(1-Benzyl-piperidin-4-ylamino)-4-oxo-4H-thiazol-5-ylidenemethyl]-phenyl}-piperidin-4-ylamino)-2-hydroxy-propoxy]-1,3-dihydro-benzoimidazol-2-one], the melting point is > 165 °C (dec.). In addition, on β3-adrenergic receptor, the half-maximal effective concentration (EC50) worked out at 30 nM and the “IA(β3)” value amounted to 0.52.

For the molecule `CCCCCCNC1=NC(=O)C(=Cc2ccc(N3CCC(NC[C@H](O)COc4ccccc4)CC3)cc2)S1` [Example 27, 2-Hexylamino-5-{4-[4-((2S)-2-hydroxy-3-phenoxy-propylamino)-piperidin-1-yl]-benzylidene}-thiazol-4-one], the melting point was 182 to 184 °C (dec.). Moreover, the “IA(β3)” value at β3-adrenergic receptor turned out to be 0.58.

As for `CS(=O)(=O)Nc1cc(C(O)CNCCOc2ccc(C=C3SC(N4CCCCC4)=NC3=O)cc2)ccc1O` (centres unmarked) [Example 33, N-[2-Hydroxy-5-(1-hydroxy-2-{2-[4-(4-oxo-2-piperidin-1-yl-4H-thiazol-5-ylidenemethyl)-phenoxy]-ethylamino}-ethyl)-phenyl]-methanesulfonamide], at β3-adrenergic receptor, the EC50 worked out at 2 nM and the “IA(β3)” value is 0.86.

Regarding `CNC1=NC(=O)C(=Cc2ccc(N3CCC(NC[C@H](O)COc4cccc5[nH]c(=O)[nH]c45)CC3)cc2)S1` [Example 1, 4-((2S)-2-Hydroxy-3-{1-[4-(2-methylamino-4-oxo-4H-thiazol-5-ylidenemethyl)-phenyl]-piperidin-4-ylamino}-propoxy)-1,3-dihydrobenzoimidazol-2-one], the melting point is > 160 °C (dec.). On β3-adrenergic receptor, the EC50 is 9 nM and the “IA(β3)” value is 1.0.

For `O=C1N=C(NC2CCN(Cc3ccccc3)CC2)SC1=Cc1ccc(N2CCC(NC[C@H](O)COc3ccc(O)cc3)CC2)cc1` [Example 4, 2-(1-Benzyl-piperidin-4-ylamino)-5-(4-{(2S)-4-[2-hydroxy-3-(4-hydroxy-phenoxy)-propylamino]-piperidin-1-yl}-benzylidene)-thiazol-4-one], the melting point is > 175 °C (dec.). On β3-adrenergic receptor, the midpoint of the response, the EC50, lay at 230 nM and the “IA(β3)” value is 0.6.

As for `O=C1N=C(NO)SC1=Cc1ccc(N2CCC(NC[C@H](O)COc3cccc4[nH]c(=O)[nH]c34)CC2)cc1` [Example 10, 4-((2S)-2-Hydroxy-3-{1-[4-(2-hydroxyamino-4-oxo-4H-thiazol-5-ylidenemethyl)-phenyl]-piperidin-4-ylamino}-propoxy)-1,3-dihydro-benzoimidazol-2-one], the melting point was 201 to 213 °C (dec.). Also, at β3-adrenergic receptor, the EC50 is 19 nM and the “IA(β3)” value is 0.69.

Take `CN1CCN(C2=NC(=O)C(=Cc3ccc(N4CCC(NC[C@H](O)COc5cccc6[nH]c(=O)[nH]c56)CC4)cc3)S2)CC1` [Example 19, 4-[(2S)-2-Hydroxy-3-(1-{4-[2-(4-methyl-piperazin-1-yl)-4-oxo-4H-thiazol-5-ylidenemethyl]-phenyl}-piperidin-4-ylamino)-propoxy]-1,3-dihydro-benzoimidazol-2-one]: the melting point is > 150 °C (dec.).

With `CCOC(=O)CC[C@H](NC1=NC(=O)C(=Cc2ccc(N3CCC(NC[C@H](O)c4ccc(O)c(NS(C)(=O)=O)c4)CC3)cc2)S1)C(=O)OCC` [Example 30, (2S)-2-[5-(4-{4-[(2R)-2-Hydroxy-2-(4-hydroxy-3-methanesulfonylamino-phenyl)-ethylamino]-piperidin-1-yl}-benzylidene)-4-oxo-4,5-dihydro-thiazol-2-ylamino]-pentanedioic acid diethyl ester], the melting point was > 130 °C (dec.). Further, on β3-adrenergic receptor, a half-maximal response (EC50) required 1 nM and the “IA(β3)” value came out at 1.0.

In the case of `O=C1N=C(N2CCCCC2)SC1=Cc1ccc(N2CCC(NC[C@H](O)COc3ccc(O)cc3)CC2)cc1` [Example 16, 5-(4-{4-[(2S)-2-Hydroxy-3-(4-hydroxy-phenoxy)-propylamino]-piperidin-1-yl}-benzylidene)-2-piperidin-1-yl-thiazol-4-one], the melting point is > 85 °C (dec.). Also, at β3-adrenergic receptor, the response was half-maximal at 75 nM (EC50) and the “IA(β3)” value amounted to 0.96.

Turning to `O=C1N=C(N2CCOCC2)SC1=Cc1ccc(N2CCC(NC[C@H](O)COc3ccc(O)cc3)CC2)cc1` [Example 23, 5-(4-{4-[(2S)-2-Hydroxy-3-(4-hydroxy-phenoxy)-propylamino]-piperidin-1-yl}-benzylidene)-2-morpholin-4-yl-thiazol-4-one], the melting point was > 100 °C (dec.). For the same molecule, on β3-adrenergic receptor, the EC50 stood at 76 nM and the “IA(β3)” value is listed as 0.78.

On to `O=C1N=C(NCCN2CCOCC2)SC1=Cc1ccc(N2CCC(NC[C@H](O)COc3cccc4[nH]c(=O)[nH]c34)CC2)cc1` [Example 2, 4-[(2S)-2-Hydroxy-3-(1-{4-[2-(2-morpholin-4-ylethylamino)-4-oxo-4H-thiazol-5-ylidenemethyl]-phenyl}-piperidin-4-ylamino)-propoxy]-1,3-dihydrobenzoimidazol-2-one], for which the melting point is > 140 °C (dec.). At β3-adrenergic receptor, the EC50 was 22 nM and the “IA(β3)” value was 1.0.

As to `O=C(O)CCNC1=NC(=O)C(=Cc2ccc(N3CCC(NC[C@H](O)COc4cccc5[nH]c(=O)[nH]c45)CC3)cc2)S1` [Example 9, 3-[5-(4-{4-[(2S)-2-Hydroxy-3-(2-oxo-2,3-dihydro-1H-benzoimidazol-4-yloxy)-propylamino]-piperidin-1-yl}-benzylidene)-4-oxo-4,5-dihydro-thiazol-2-ylamino]-propionic acid], at β3-adrenergic receptor, the EC50 worked out at 7 nM and the “IA(β3)” value turned out to be 0.81.

For the origin of these results see patent US6821991B2, “2-substituted thiazolidinones as β-3 adrenergic receptor agonists” (Wyeth, priority 2000, dated 2004).
